Test results published in patent US7355074B2, “Compounds having aromatic rings and side-chain amide-functionality and a method for transporting monovalent anions across biological membranes using the same” (The University of Maryland, priority 2003, dated 2008).

Key:
[1] = calcein dye release assay (lytic potential); format: biochemical; conditions: 5-100 μM, 1-20 mol % ligand; LUVs containing 120 mM calcein
Protocol: Calix[4]arene tetrabutylamide 2 may transport ions across LUVs by inducing membrane defects, by uniport of ions, or via cotransport of ion pairs ([…], M^− or OH^−/A^− antiport and H^+/A^− or M^+/OH^− symport mechanisms are possible). The lytic potential of 2 was evaluated using a dye release assay. The self-quenching dye calcein loses 95% of its fluorescence emission at concentrations above 100 mM. 2.
EYPC Calcein-Containing Vesicles: Calcein (224.1 mg, 0.36 mmol) was suspended in 3 mL of phosphate buffer (100 mM NaCl, 10 mM sodium phosphate, pH 6.4). The pH of the solution was adjusted to 6.4 with a 7.4 M NaOH-containing phosphate buffer, at which point all the calcein was dissolved to give a 120 mM solution of the dye. The molality of the extravesicular buffer was adjusted to equal that of the calcein-containing solution with 1 m NaCl. Osmomolality was determined by VPO. A thin film was prepared from 60 mg of EYPC ([…]) as described above. The lipid film was hydrated in 1.2 mL of the calcein buffer. During hydration, the suspension was submitted to five freeze-thaw cycles (dry ice in acetone, water at room temperature) and then submitted to high-pressure extrusion (2) extrusions through a 0.1 μm polycarbonate membrane afforded LUVs with an average diameter of 100 nm). […]

[2] = 1H NMR binding experiment in CDCl3 with n-Bu4-NCl
Protocol: FIG. 7 illustrates a series of […] spectra (400 mHz, CDCl3, 22° C.) of calixarene tetrabutylamide in the presence of different species: (A) the compound alone (5 mm); (B) the compound with 1 equiv. of Bu4 NCl; (C) the compound after washing CDCl3 solution of the compound with an aqueous solution of 0.5 m HCl; (D) after washing CDCl3 solution of the compound with an aqueous solution of 0.5 M H2SO4.
To obtain evidence for Cl^− binding by 2, ^1H NMR experiments were run in CDCl3 using n-Bu4-NCl and HCl as Cl^− sources. Anion receptors usually show chemical shift perturbation upon anion complexation, particularly for amide NH protons that hydrogen bond to the anion. […] Calix[4]arene tetrabutylamide 2 does, however, bind HCl. Thus, shaking a CDCl3 solution of 2 with aqueous HCl led to disappearance of the amide NH proton and a significant upfield shift of the […] protons (FIG. 4c).

[3] = pH changes in liposomes experiencing a Cl- gradient (oligophenoxyacetamides); format: biochemical
Protocol: FIG. 2B illustrates alkanization of the vesicular aqueous compartment upon application of compounds 1-6 to a suspension of NaCl-containing vesicles in isosmomolar Na2SO4 buffer. Concentration of compounds 1-6 in the vesicular suspension was 20 μm (4 mol %). Legend for traces denotes use of oligocompounds 1, 2, 3, 4, 5, 6.
Liposome Preparation for Fluorimetric Assays. Egg yolk L-α-phosphatidylcholine (EYPC ethanol solution, […], 79 μmol) was dissolved in a CHCl3/MeOH mixture, the solution was evaporated under reduced pressure and the resulting thin film was dried under high vacuum for 2 h. The lipid film was hydrated in 1.2 mL of phosphate buffer (10 mM sodium phosphate, pH=6.4, 75-100 mM MnX, M=N^+, K^+, X=Cl^−, SO4^2−, n=1,2) containing 10 μM HPTS (pyranine, 8-hydroxypyrene-1,3,6-trisulfonic acid trisodium salt) for 40 min. During hydration, the suspension was submitted to 5 freeze-thaw cycle (liquid nitrogen, water at rt). The large multilamellar liposome suspension (1 mL) was submitted to high-pressure extrusion at rt (21 extrusions through a 0.1 μm polycarbonate membrane afforded a suspension of LUVs with an average diameter of 100 nm). The LUV suspension was separated from extravesicular dye by size exclusion chromatography (SEC) (stationary phase: Sephadex G-10, mobile phase: phosphate buffer) and diluted with the same phosphate buffer to give a stock solution with a lipid concentration of 11 mM (assuming 100% of lipid was incorporated into liposomes).
(§1) Analysis of pH changes in the liposomes experiencing a CT gradient. a) Outwardly directed gradient of Cl:HPTS-loaded vesicles (100 μL of the stock solution), filled with a saline phosphate buffer (10 mM sodium phosphate, pH 6.4, 100 mM NaCl) were suspended in 1.9 mL of an isosmotic phosphate sulfate buffer (10 mM sodium phosphate, pH 6.0, 75 mM Na2SO4) and placed into a fluorimetric cell. The emission of HPTS at 510 nm was monitored with excitation wavelengths at 403 and 460 nm simultaneously. During the experiment, 20 μL of a 0-2 mM DMSO solution of the compound of interest was added through an injection port. Intravesicular pH values were obtained as described for pH-stat transport assays. At the end of experiment, the aqueous compartment of liposomes was equilibrated with extravesicular solution by lysis of liposomes with detergent (40 μL of 5% aqueous Triton X100). b) Inwardly directed gradient of Cl:HPTS-loaded vesicles (100 μL of the stock solution), filled with a isoosimomolar sulfate phosphate buffer (10 mM sodium phosphate, pH 6.0, 75 mM Na2SO4) were suspended in 1.9 mL of an isosmotic phosphate saline buffer (10 mM sodium phosphate, pH 6.4, 100 mM NaCl) and placed into a fluorimetric cell. Further analysis was conducted as described for the case of an outwardly directed gradient of […]. Analysis of the electrostatic potential on the surface of liposomes. LUVs (100 μL of stock solution, 100 mM KCl inside and outside or 75 mM Na2SO4 inside and outside) were suspended in 1.9 mL of 100 mM NaCl buffer containing 60 nM safranin O (a potential-sensitive dye). Safranin O emission was monitored at 580 nm with excitation at 520 nm. During the course of the experiment, 20 μL of a 0-0.12 mM DMSO solution of valinomycin or 0-2 mM of 3-8 DMSO solution was added. Experiments were completed by injection of 20 μL of 1 mM aqueous solution of the defect-inductive peptide melittin.

[4] = liposome potential assay with safranin O; format: biochemical
Protocol: FIG. 3 illustrates liposome potential assays. Suspension of EYPC LUVs in phosphate buffer was used (10 m M Nan H3-n PO4, n=1, 2, pH 6.4, 100 m M KCl or 75 m M Na2 H3-n PO4, n=1, 2, pH 6.4, 100 m M KCl or 75 m M NA2 SO4 inside and 100 m M NaCl, 60 nM safranin O, ex 480 nm, em 520 nm, outside). Legend for trace denotes the formation of potential in: —KCl vesicles upon application of valinmycin·Na2SO4 vesicles upon application of 3, —KCl vesicles upon application of 3, —Na2SO4 vesicles upon application of valinomycin.
as §1

[5] = 4 mol %, NaCl-loaded liposomes in Na2SO4 buffer

calcein fluorescence (membrane defects) [1] | binding of the naked Cl− anion [2] | SMILES | pH gradient generated [3, 5] | time to reach the pH gradient [3, 5] [minutes] | time the pH gradient remained stable ([3]; 4 mol %, until the liposomes were lysed) [minutes] | relative ability to alter the pH in liposomes under a Cl− gradient ([3]; NaCl-loaded liposomes in Na2SO4 buffer) | transport under inwardly directed Cl− gradient ([3]; sulfate-loaded liposomes suspended in Cl− buffer) | transmembrane potential formed ([4]; Na2SO4 inside, NaCl outside, safranin O outside, 1 mol %) | time to formation of the transmembrane potential ([4]; Na2SO4 inside, NaCl outside, 1 mol %) [min] | ability to create a transmembrane potential ([4]; Na2SO4 vesicles in NaCl buffer (conditions of the trimer)) | magnitude of the transmembrane potential ([4]; inwardly directed Cl− gradient, compared with valinomycin in liposomes with 100 mM KCl inside, 100 mM NaCl outside)
no fluorescence enhancement | does not bind strongly | CCCCNC(=O)COc1c2cccc1Cc1cccc(c1OCC(=O)NCCCC)Cc1cccc(c1OCC(=O)NCCCC)Cc1cccc(c1OCC(=O)NCCCC)C2 [calix[4]arene tetrabutylamide 2, Calix[4]arene tetrabutylamide] | – | – | – | – | – | – | – | – | –
– | – | CCCCNC(=O)COc1ccccc1Cc1cccc(Cc2ccccc2OCC(=O)NCCCC)c1OCC(=O)NCCCC [trimer 3, Tris-(N-butyl-2-phenoxyacetamide)] | approximately are pH unit | ≤ 1.5 | 5 | most active compound in the series tested | transports both Cl^− and H^+ into sulfate-loaded liposomes | stable negative charge inside liposomes | ≤ 2 | created transmembrane potential | comparable to that generated by 0.12 mol % valinomycin
